Measurements as given in US5242935A, “Method for treatment of neurodegenerative diseases” (R. J. Reynolds Tobacco Company, priority 1992, dated 1993).

How the values were obtained:
[1] = system: synaptosomes from the striatal area of rat brain; test: [3H]Dopamine release from rat striatal synaptosomes (continuous perfusion); format: cell-based, rat (Sprague-Dawley); settings: 0.2 ml of a 20 μM solution of ligand, relative to equal concentration of S(-) nicotine, read-out: Dopamine Release (percent release relative to S(-) nicotine)
Procedure: Dopamine release was measured by preparing synaptosomes from the striatal area of rat brain obtained from Sprague-Dawley rats generally according to the procedures set forth by Nagy, et al., J. Neurochem., Vol. 43, pp. 1114-1123 (1984). Striata from 4 rats were homogenized in 2 ml of 0.32M sucrose buffered with 5 mM HEPES (pH 7.5), using a glass-teflon tissue grinder. The homogenate was diluted to 5 ml with additional homogenization solution and centrifuged at 1000×g for 10 min. This procedure was repeated on the new pellet
the resulting supernatant was centrifuged at 12,000×g for 20 min. A 3 layer discontinuous Percoll gradient consisting of 16 percent, 10 percent and 7.5 percent Percoll in HEPES-buffered sucrose was made with the final pellet dispersed in the top layer. After centrifugation at 15,000×g for 20 min., the synaptosomes were recovered above the 16 percent layer with a pasteur pipette, diluted with 8 ml of perfusion buffer (128 mM NaCl, 2.4 mM KCl, 3.2 mM CaCl2, 1.2 mM KH2 PO4, 1.2 mM MgSO4, 25 mM HEPES pH 7.4, 10 mM dextrose, 1 mM ascorbate, 0.01 mM pargyline), and centrifuged at 15,000×g for 20 min. The new pellet was collected and re-suspended in perfusion buffer. The synaptosome suspension was incubated for 10 min. at 37° C. Then [^3 H]dopamine (Amersham, 40-60 Ci/mmol) was added to the suspension to give a final concentration of 0.1 μM in suspension, and the suspension was incubated for another 5 min. Using this method, 30 to 90 percent of the dopamine was taken up into the synaptosomes, as determined by scintillation counting following filtration through glass fiber filters soaked with 0.5 percent polyethyleneimine. A continuous perfusion system was used to monitor release following exposure to each ligand (i.e., 5-fluoronicotine, 5-bromonicotine, 4^1 -methylnicotine, 5'-methylnicotine, and 5-methylnicotine). Synaptosomes were loaded onto glass fiber filters (Gelman type A/E). Perfusion buffer was dripped onto the filters (0.2-0.3 ml/min.) and pulled through the filters with a peristaltic pump. Synaptosomes were washed with perfusion buffer for a minimum of 20 min. before addition of the ligand. After the addition of a 0.2 ml of a 20 μM solution of ligand, the perfusate was collected into scintillation vials at 1 min. intervals and the dopamine released was quantified by scintillation counting. Peaks of radioactivity released above background were summed and the average basal release during that time was subtracted from the total. Release was expressed as a percentage of release obtained with an equal concentration of S(-) nicotine.

[2] = target: high affinity nicotinic receptors; test: Inhibition of L-[3H]nicotine binding to mouse brain membrane preparations; set-up: species or system mouse (DBA strain); settings: mouse brain membranes, 2 hr at 4° C., Ki calculated from IC50 by Cheng method
Procedure: Mice (DBA strain) were maintained on a 12 hour light/dark cycle and were allowed free access to water and food supplied by Wayne Lab Blox, Madison, WI. Animals used in the present studies were 60 to 90 days of age and weighed 20 to 25 g. Brain membrane preparations were obtained from pooled brain tissue of both males and females.
Mice were killed by cervical dislocation. Brains were removed and placed on an ice-cold platform. The cerebellum was removed and the remaining tissue was placed in 10 volumes (weight:volume) of ice-cold buffer (Krebs-RingersHEPES:NaCl, 118 mM; KCl, 4.8 mM; CaCl2, 2.5 mM; MgSO4, 1.2 mM; HEPES, 20 mM; pH to 7.5 with NaOH) and homogenized with a glass-Teflon tissue grinder. The resulting homogenate was centrifuged at 18000×g for 20 min. and the resulting pellet was resuspended in 20 volumes of water. After 60 min. incubation at 4.C, a new pellet was collected by centrifugation at 18000×g for 20 min. After resuspension in 10 volumes of buffer, a new final pellet was again collected by centrifugation at 18000×g for 20 min. Prior to each centrifugation step, the suspension was incubated at 37° C. for 5 min. to promote hydrolysis of endogenous acetylcholine. The final pellet was overlayered with buffer and stored at -70° C. On the day of the assay, that pellet was thawed, resuspended in buffer and centrifuged at 18000×g for 20 min. The resulting pellet obtained was resuspended in buffer to a final concentration of approximately 5 mg protein/ml. Protein was determined by the method of Lowry, et al., J. Biol. Chem., Vol. 193, pp. 265-275 (1951), using bovine serum albumin as the standard.
The binding of L-[^3 H]nicotine was measured using a modification of the method of Romano, et al., Science, Vol. 210, pp. 647-650 (1980) as described previously by Marks, et al., Mol. Pharmacol., Vol. 30, pp. 427-436 (1986). The binding of L-[^3 H]nicotine was measured using a 2 hr. incubation at 4° C. Incubations contained about 500 μg of protein and were conducted in 12 mm×75 mm polypropylene test tubes in a final incubation volume of 250 μl. The incubation buffer was Krebs-Ringers HEPES containing 200 mM TRIS buffer, pH 7.5. The binding reaction was terminated by filtration of the protein containing bound ligand onto glass fiber filters (Micro Filtration Systems) that had been soaked in buffer containing 0.5 percent polyethyleneimine. Filtration vacuum was -50 to -100 torr. Each filter was washed five times with 3 ml of ice-cold buffer. The filtration apparatus was cooled to 2° C. before use and was kept cold through the filtration process. Nonspecific binding was determined by inclusion of 10 μM nonradioactive nicotine in the incubations. The inhibition of L-[^3 H]nicotine binding by test compounds was determined by including one of eight different concentrations of the test compound in the incubation. Inhibition profiles were measured using 10 nM L-[^3 H]nicotine and IC50 values were estimated as the concentration of compound that inhibited 50 percent of specific L-[^3 H]nicotine binding. Inhibition constants (Ki values) were calculated from the IC50 values using the method of Cheng, et al., Biochem. Pharmacol., Vol. 22, pp. 3099-3108 (1973). […] The L-[^3 H]nicotine used in all experiments was purified chromatographically by the method of Romm, et al., Life Sci., Vol. 46, pp. 935-943 (1990).

SMILES	Emax at 20 µM [1]	Ki [2]
CC1CC(c2cccnc2)N(C)C1 (racemic) [4^1 -methylnicotine]	40%	0.091 ± 0.007 µM
CN1CCCC1c1cncc(Br)c1 (racemic) [5-bromonicotine]	65%	0.044 ± 0.012 µM
CN1CCCC1c1cncc(F)c1 (racemic) [5-fluoronicotine]	110%	0.061 ± 0.016 µM
Cc1cncc(C2CCCN2C)c1 (racemic) [5-methylnicotine]	30%	0.002 ± 0.0008 µM
CC1CCC(c2cccnc2)N1C (racemic) [5^1 -methylnicotine]	5%	6.4 µM
